Reference: patent US9340493B2, “Hydroxamic acid derivatives useful as antibacterial agents” (Pfizer Inc., priority 2008, dated 2016)
Values after ≈ are worked out from the molar mass of the structure shown.

What was measured:
[1] = molecular target: T1, Pseudomonas aeruginosa LpxC enzyme (Pseudomonas aeruginosa, UniProt P47205); assay: IC50 assay, LpxC enzyme from P. aeruginosa; assay type: biochemical; conditions: 0.5 nM enzyme, 25° C., pH 8.0, 20 min; ** = average of 2-8 assays
T1 construct: made in house; host or cells: E. coli
T1 sequence (P47205 1-303): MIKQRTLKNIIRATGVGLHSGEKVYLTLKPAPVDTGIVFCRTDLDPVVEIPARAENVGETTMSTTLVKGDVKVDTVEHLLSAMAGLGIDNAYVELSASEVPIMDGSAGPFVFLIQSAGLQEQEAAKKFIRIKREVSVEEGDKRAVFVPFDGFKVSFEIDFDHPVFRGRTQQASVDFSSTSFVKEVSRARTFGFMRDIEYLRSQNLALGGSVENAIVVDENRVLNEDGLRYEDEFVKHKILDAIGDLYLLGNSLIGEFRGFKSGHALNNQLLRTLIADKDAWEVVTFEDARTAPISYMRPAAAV
Method in brief: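 P. aeruginosa LpxC (0.5 nM, expressed in E. coli) reacted with 0.5 uM ³H-acetyl-labelled UDP-3-O-(R-3-hydroxydecanoyl)-GlcNAc in 50 mM sodium phosphate pH 8.0 with 1 mg/ml BSA at 25 °C for 20 min. Charcoal stopped the reaction, and filtrate radioactivity was counted by scintillation after no-enzyme background subtraction.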

P. aeruginosa PAO280 = assay: MIC determination, P. aeruginosa PAO280; assay type: cell-based; conditions: Pseudomonas aeruginosa, PAO280, read-out: MIC (ug/mL) P. aeruginosa PAO280
Method in brief: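 Broth dilution MIC per CLSI M7-A7/M100-S18 guidelines. Strain PAO280 lacks efflux pumps MexAB-oprM, MexXY and MexZ.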

P. aeruginosa UI-18 = assay: MIC determination, P. aeruginosa UI-18; assay type: cell-based; conditions: Pseudomonas aeruginosa, UI18; wild-type; * = arithmetic mean of 2-6 MIC determinations; read-out: MIC (ug/mL) P. aeruginosa UI-18
Method in brief: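 MIC by broth dilution following CLSI M7-A7 and M100-S18 guidelines, tested against wild-type P. aeruginosa UI-18.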

[2] = system: Acinetobacter baumanii/haemolyticus; assay: MIC determination, A. baumanii/haemolyticus; assay type: cell-based; conditions: Acinetobacter baumannii; multidrug-resistant clinical isolate; * = arithmetic mean of 2-6 MIC determinations; read-out: MIC (ug/mL) A. baumanii/haemolyticus
Method in brief: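 MICs were determined by CLSI broth dilution (M7-A7, M100-S18) against a multidrug-resistant clinical isolate of Acinetobacter baumanii/haemolyticus.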

Enterobacter aerogenes = assay: MIC determination, E. aerogenes; assay type: cell-based; conditions: Klebsiella aerogenes; quinolone-resistant, ESBL-expressing clinical isolate; * = arithmetic mean of 2-6 MIC determinations; read-out: MIC (ug/mL) E. aerogenes
Method in brief: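 Clinical E. aerogenes isolate, quinolone-resistant and ESBL-expressing. MIC measured in vitro by dilution testing according to CLSI guidelines (M7-A7, M100-S18).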

Escherichia coli EC-1 = assay: MIC determination, E. coli EC-1; assay type: cell-based; conditions: EC1, EC-1: VOGEL, * = arithmetic mean of 2-6 MIC determinations, read-out: MIC (ug/mL) E. coli EC-1
Method in brief: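 Minimum inhibitory concentration against Escherichia coli EC-1 was determined in vitro by dilution susceptibility testing under CLSI M7-A7 and M100-S18 guidelines.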

Klebsiella pneumoniae = assay: MIC determination, K. pneumoniae; assay type: cell-based; conditions: ciprofloxacin-resistant, ESBL-expressing clinical isolate, * = arithmetic mean of 2-6 MIC determinations, read-out: MIC (ug/mL) K. pneumoniae
Method in brief: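 MIC determined by broth dilution per CLSI M7-A7 and M100-S18 guidelines. Strain: ciprofloxacin-resistant, ESBL-expressing clinical isolate of K. pneumoniae.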

[3] = system: Staphylococcus aureus ATCC 29213; assay: MIC determination, S. aureus ATCC 29213; assay type: cell-based; conditions: ATCC29213, CLSI quality control reference strain, * = arithmetic mean of 2-6 MIC determinations, read-out: MIC (ug/mL) S. aureus ATCC 29213
Method in brief: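 MIC was measured by dilution susceptibility testing following CLSI guidelines (M7-A7; M100-S18). The test organism is the CLSI quality-control reference strain.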

Serratia marcescens = assay: MIC determination, S. marcescens; assay type: cell-based; conditions: multidrug-resistant clinical isolate, * = arithmetic mean of 2-6 MIC determinations, read-out: MIC (ug/mL) S. marcescens
Description: MIC determinations: The in vitro antibacterial activity of compounds described in the Examples was evaluated by minimum inhibitory concentration (MIC) testing according to Clinical and Laboratory Standards Institute (CLSI, formerly NCCLS) guidelines. See: Clinical and Laboratory Standards Institute. Methods for Dilution Antimicrobial Susceptibility Tests for Bacteria that Grow Aerobically; Approved Standard-Seventh Edition. CLSI document M7-A7 [ISBN 1-56238-587-9]. Clinical and Laboratory Standards Institute, 940 West Valley Road, Suite 1400, Wayne, Pa. 19087-1898 USA, 2006; also Clinical and Laboratory Standards Institute. Performance Standards for Antimicrobial Susceptibility Testing; Eighteenth Informational Supplement. CLSI document M100-S18 [ISBN1-56238-653-0]. Clinical and Laboratory Standards Institute.
The following bacterial strains were used:
Serratia marcescens: Multidrug-resistant clinical isolate.

COCC(CO)(OCc1ccc(-c2ccccc2)cc1)C(=O)NO (stereo not shown) [Example 56, 2-(biphenyl-4-ylmethoxy)-N,3-dihydroxy-2-(methoxymethyl)propanamide]
IC50 [1]: 0.0222 µM
MIC (P. aeruginosa PAO280): 4 µg/mL (≈ 12.1 µM)
MIC (P. aeruginosa UI-18): > 64 µg/mL
MIC [2]: > 64 µg/mL
MIC (Enterobacter aerogenes): > 64 µg/mL
MIC (Escherichia coli EC-1): > 64 µg/mL
MIC (Klebsiella pneumoniae): > 64 µg/mL
MIC [3]: > 64 µg/mL
MIC (Serratia marcescens): > 64 µg/mL

CC(C)C[C@H](O)[C@](C)(OCc1ccc(-c2ccccc2)cc1)C(=O)NO [Example 6, (2S,3S)-2-(biphenyl-4-ylmethoxy)-N,3-dihydroxy-2,5-dimethylhexanamide]
IC50 [1]: 0.16 µM
MIC (P. aeruginosa PAO280): 64 µg/mL (≈ 179 µM)
MIC (P. aeruginosa UI-18): > 64 µg/mL
MIC [2]: > 64 µg/mL
MIC (Enterobacter aerogenes): > 64 µg/mL
MIC (Escherichia coli EC-1): > 64 µg/mL
MIC (Klebsiella pneumoniae): > 64 µg/mL
MIC [3]: 64 µg/mL (≈ 179 µM)
MIC (Serratia marcescens): > 64 µg/mL

C[C@H](O)[C@](C)(OCc1ccc(-c2ccccc2)cc1)C(=O)NO [Example 2a, (2S,3S)-2-(biphenyl-4-ylmethoxy)-N,3-dihydroxy-2-methylbutanamide]
IC50 [1]: 0.00299 µM
MIC (P. aeruginosa PAO280): 0.5 µg/mL (≈ 1.59 µM)
MIC (P. aeruginosa UI-18): 32 µg/mL (≈ 101 µM)
MIC [2]: > 64 µg/mL
MIC (Enterobacter aerogenes): > 64 µg/mL
MIC (Escherichia coli EC-1): > 64 µg/mL
MIC (Klebsiella pneumoniae): > 64 µg/mL
MIC [3]: > 64 µg/mL
MIC (Serratia marcescens): > 64 µg/mL

C[C@@](OCc1ccc(-c2ccccc2)cc1)(C(=O)NO)[C@@H](O)c1c[nH]cn1 [Example 9, (2S,3S)-2-(biphenyl-4-ylmethoxy)-N,3-dihydroxy-3-(1H-imidazol-4-yl)-2-methylpropanamide]
IC50 [1]: 0.00084 µM
MIC (P. aeruginosa PAO280): 0.125 µg/mL (≈ 0.34 µM)
MIC (P. aeruginosa UI-18): 8 µg/mL (≈ 21.8 µM)
MIC [2]: > 64 µg/mL
MIC (Enterobacter aerogenes): > 64 µg/mL
MIC (Escherichia coli EC-1): > 64 µg/mL
MIC (Klebsiella pneumoniae): > 64 µg/mL
MIC [3]: > 64 µg/mL
MIC (Serratia marcescens): > 64 µg/mL

O=C(NO)C1(OCc2ccc(-c3ccccc3)cc2)CCOCC1 [Example 58, 4-(biphenyl-4-ylmethoxy)-N-hydroxytetrahydro-2H-pyran-4-carboxamide]
IC50 [1]: 0.04 µM
MIC (P. aeruginosa PAO280): 4 µg/mL (≈ 12.2 µM)
MIC (P. aeruginosa UI-18): > 64 µg/mL
MIC [2]: > 64 µg/mL
MIC (Enterobacter aerogenes): > 64 µg/mL
MIC (Escherichia coli EC-1): > 64 µg/mL
MIC (Klebsiella pneumoniae): > 64 µg/mL
MIC [3]: > 64 µg/mL
MIC (Serratia marcescens): > 64 µg/mL

C[C@@](OCc1ccc(-c2ccccc2)cc1)(C(=O)NO)[C@@H](O)CC(F)(F)F [Example 7, (2S,3S)-2-(biphenyl-4-ylmethoxy)-N,3-dihydroxy-2-methyl-5,5,5-trifluoropentanamide]
IC50 [1]: 0.00953 µM
MIC (P. aeruginosa PAO280): 2 µg/mL (≈ 5.22 µM)
MIC (P. aeruginosa UI-18): > 64 µg/mL
MIC [2]: > 64 µg/mL
MIC (Enterobacter aerogenes): > 64 µg/mL
MIC (Escherichia coli EC-1): > 64 µg/mL
MIC (Klebsiella pneumoniae): > 64 µg/mL
MIC [3]: 64 µg/mL (≈ 167 µM)
MIC (Serratia marcescens): > 64 µg/mL

Cn1ccnc1[C@H](O)[C@](C)(OCc1ccc(-c2ccccc2)cc1)C(=O)NO [Example 10, (2S,3S)-2-(biphenyl-4-ylmethoxy)-N,3-dihydroxy-2-methyl-3-(1-methyl-1H-imidazol-2-yl)propanamide]
IC50 [1]: 0.00246 µM
MIC (P. aeruginosa PAO280): 0.19 µg/mL (≈ 0.498 µM)
MIC (P. aeruginosa UI-18): 33 µg/mL (≈ 86.5 µM)
MIC [2]: 64 µg/mL (≈ 168 µM)
MIC (Enterobacter aerogenes): > 64 µg/mL
MIC (Escherichia coli EC-1): 48 µg/mL (≈ 126 µM)
MIC (Klebsiella pneumoniae): 48 µg/mL (≈ 126 µM)
MIC [3]: 48 µg/mL (≈ 126 µM)
MIC (Serratia marcescens): 64 µg/mL (≈ 168 µM)

O=C(NO)C(CO)(CO)OCc1ccc(-c2ccccc2)cc1 [Example 91, 2-(biphenyl-4-ylmethoxy)-N,3-dihydroxy-2-(hydroxymethyl)propanamide]
IC50 [1]: 0.0108 µM
MIC (P. aeruginosa PAO280): 1.25 µg/mL (≈ 3.94 µM)
MIC (P. aeruginosa UI-18): 43 µg/mL (≈ 136 µM)
MIC [2]: > 64 µg/mL
MIC (Enterobacter aerogenes): > 64 µg/mL
MIC (Escherichia coli EC-1): > 64 µg/mL
MIC (Klebsiella pneumoniae): > 64 µg/mL
MIC [3]: > 64 µg/mL
MIC (Serratia marcescens): > 64 µg/mL

C[C@@](OCc1ccc(-c2ccccc2)cc1)(C(=O)NO)[C@@H](O)c1ccccc1 [Example 11, (2S,3S)-2-(biphenyl-4-ylmethoxy)-N,3-dihydroxy-2-methyl-3-phenylpropanamide]
IC50 [1]: 0.00509 µM
MIC (P. aeruginosa PAO280): 8 µg/mL (≈ 21.2 µM)
MIC (P. aeruginosa UI-18): > 64 µg/mL
MIC [2]: > 64 µg/mL
MIC (Enterobacter aerogenes): > 64 µg/mL
MIC (Escherichia coli EC-1): > 64 µg/mL
MIC (Klebsiella pneumoniae): > 64 µg/mL
MIC [3]: 32 µg/mL (≈ 84.8 µM)
MIC (Serratia marcescens): > 64 µg/mL

CCOCC[C@H](O)[C@](C)(OCc1ccc(-c2ccccc2)cc1)C(=O)NO [Example 8, (2S,3S)-2-(biphenyl-4-ylmethoxy)-5-ethoxy-N,3-dihydroxy-2-methylpentanamide]
IC50 [1]: 0.0284 µM
MIC (P. aeruginosa PAO280): 8 µg/mL (≈ 21.4 µM)
MIC (P. aeruginosa UI-18): > 64 µg/mL
MIC [2]: > 64 µg/mL
MIC (Enterobacter aerogenes): > 64 µg/mL
MIC (Escherichia coli EC-1): > 64 µg/mL
MIC (Klebsiella pneumoniae): > 64 µg/mL
MIC [3]: > 64 µg/mL
MIC (Serratia marcescens): > 64 µg/mL

CCCc1ccc(-c2ccc(CO[C@](C)(C(=O)NO)[C@@H](O)c3cc(C)on3)cc2)cc1 [Example 30, (2S,3S)-N,3-dihydroxy-2-methyl-3-(5-methylisoxazol-3-yl)-2-[(4′-propylbiphenyl-4-yl)methoxy]propanamide]
IC50 [1]: 0.000762 µM
MIC (P. aeruginosa PAO280): 1 µg/mL (≈ 2.36 µM)
MIC (P. aeruginosa UI-18): 4 µg/mL (≈ 9.42 µM)
MIC [2]: 2 µg/mL (≈ 4.71 µM)
MIC (Enterobacter aerogenes): 16 µg/mL (≈ 37.7 µM)
MIC (Escherichia coli EC-1): 2 µg/mL (≈ 4.71 µM)
MIC (Klebsiella pneumoniae): 4 µg/mL (≈ 9.42 µM)
MIC [3]: 32 µg/mL (≈ 75.4 µM)

CC(CO)(OCc1ccc(-c2ccc(-c3cc(CN4CCOCC4)no3)cc2)cc1)C(=O)NO (stereo not shown) [Example 55, N,3-dihydroxy-2-methyl-2-({4′-[3-(morpholin-4-ylmethyl)isoxazol-5-yl]biphenyl-4-yl}methoxy)propanamide]
IC50 [1]: 0.00399 µM
MIC (P. aeruginosa PAO280): 0.5 µg/mL (≈ 1.07 µM)
MIC (P. aeruginosa UI-18): 32 µg/mL (≈ 68.4 µM)
MIC [2]: > 64 µg/mL
MIC (Enterobacter aerogenes): > 64 µg/mL
MIC (Escherichia coli EC-1): > 64 µg/mL
MIC (Klebsiella pneumoniae): > 64 µg/mL
MIC [3]: > 64 µg/mL
